Test results: PMC6104039 (Nature Communications, 2018)
Values joined by “and” are separate entries in the source; they are usually repeats but may differ in a detail not shown here. Equal entries are not always repeated. “Also recorded” adds a separate entry of the source.

System: SkM
Assay: Lipidomic profiling of skeletal muscle (quadriceps) of mice on chow or HFD
Assay type: in vivo
Text: Male C57BL6/J mice were obtained from the Animal Resources Centre in Perth (WA, Australia). […] Treatment was commenced at the same time as mice were randomised to dietary groups. The experiments were approved by the UNSW animal care and ethics committee (ACEC 15/48B), and followed guidelines issued by the National Health and Medical Research Council of Australia.
Lipids were extracted from frozen tissue samples or cells using a two-phase procedure with methyl-tert-butyl ether (MTBE)/methanol/water (10:3:2.5, v/v/v)[67]. Frozen tissue samples (~20 mg) were homogenized in 0.2 mL methanol containing 0.01% butylated hydroxytoluene (BHT), using a Precellys 24 homogenizer and Cryolys cooling unit (Bertin Technologies) with CK14 (1.4-mm ceramic) beads. The homogenates were spiked with an internal standard mixture comprising 5 nmole 19:0/19:0 phosphatidylcholine and 2 nmole each of 17:0/17:0 phosphatidylethanolamine, 17:0/17:0 phosphatidylserine, 17:0/17:0 d5-diacylglycerol, 17:0/17:0 phosphatidylglycerol, 14:0/14:0/14:0/14:0 cardiolipin, 18:1/12:0 SM, 18:1/17:0 ceramide, 18:1/12:0 glucosylceramide, 18:1/12:0 lactosylceramide, 18:1/12:0 sulfatide (all from Avanti Polar Lipids, USA), and 17:0/17:0/17:0 TAG (Cayman Chemical, USA), then transferred to 10 mL screw cap glass tubes. The homogenization tubes containing beads were then washed with another 0.3 mL methanol, and this wash was combined with the first methanol extract, after which 1.7 mL MTBE was added and the samples were sonicated in an ice-cold sonicating water bath (Thermoline Scientific, Australia) for 30 min. Phase separation was induced by addition of 417 µL of mass spectrometry-grade water followed by vortexing and centrifugation at 1000 × g for 10 min. The upper organic phase was collected into 5 mL glass tubes. The lower phase was re-extracted by adding 1 mL MTBE, 300 μL methanol, and 250 μL water. The organic phases were combined in the 5 mL glass tubes and dried under vacuum in a Savant SC210 SpeedVac (Thermo Scientific), then reconstituted in 500 μL methanol and stored at −20 °C until analysis.
Lipidomic profiling was performed on a QExactive Plus mass spectrometer with heated electrospray ionization (HESI) probe and a Dionex UltiMate 2000 LC pump (Thermo Fisher Scientific). Extracts were resolved on a 2.1 × 100 mm Waters Acquity C18 UPLC column (1.7 µm […]), using a binary gradient in which mobile phase A consisted of acetonitrile:water (60:40), 10 mM ammonium formate, 0.1% formic acid; and mobile phase B was isopropanol:acetonitrile (90:10), 10 mM ammonium formate, 0.1% formic acid[68]. The flow rate was 260 µL/min and column oven 55 °C. Data was acquired in full scan/data-dependent MS^2 mode (full scan resolution 70,000 FWHM, scan range 400–1200 m/z). The ten most abundant ions in each cycle were subjected to MS^2 using an isolation window of 1.4 m/z, collision energy 30 eV, resolution 17,500, maximum integration time 110 ms and dynamic exclusion window 10 s. An exclusion list of background ions was used based on a solvent blank. LipidSearch v4.1.30 software (ThermoFisher Scientific) was used for chromatogram alignment, peak identification and integration. Each lipid peak was manually verified for column elution time and characteristic fragment ions. Data were then exported to an Excel spreadsheet for normalisation of each lipid to its class-specific internal standard, and lipid concentrations were calculated relative to the internal standard.
Data were log transformed, then subjected to two-tailed t-tests adjusted for multiple comparisons using GraphPad PRISM (Benjamini, Krieger and Yekutieli correction, Q = 1%).

[1] = Muscle lipidomic data, Chow Vehicle vs Chow P053, Mean1 minus Mean2
[2] = Muscle lipidomic data, Chow Vehicle vs Chow P053, Mean2 = Chow P053 group
[3] = Muscle lipidomic data, HFD Vehicle vs HFD P053, Mean1 minus Mean2
[4] = Muscle lipidomic data, HFD Vehicle vs HFD P053, Mean2 = HFD P053 group

SMILES: C[C@@](N)(CO)CCc1ccc(OCc2ccc(Cl)c(Cl)c2)cc1 [P053, (S)-2-amino-4-(4-(3,4-dichlorobenzyloxy)phenyl)-2-methylbutan-1-ol]
- Ceramide 18:1/24:1 content of skeletal muscle (HFD + P053, individual mice): 4.07 and 3.37 and 3.91 and 3.88 and 4.88 and 3.55 (2×) and 3.81 and 5.60 and 2.28 and 2.44 and 3.08 and 2.82 and 2.33 and 2.75 and 2.49 and 2.86 and 2.35 and 3.30
- Ceramide 18:2/18:0 content of skeletal muscle (HFD + P053, individual mice): 0.85 (2×) and 1.05 and 0.95 and 1.06 and 1.53 and 1.34 and 0.98 and 1.27 and 2.27 and 1.58 and 1.22 and 1.29 (2×) and 0.73 and 0.92 and 1.11 and 0.97 and 0.74
- SM 34:1 content of skeletal muscle (HFD + P053, individual mice): 56.88 and 99.05 and 291.61 and 79.88 and 179.42 and 129.66 and 30.83 and 225.53 and 214.19 and 48.41 and 47.17 and 48.35 and 37.16 and 22.64 and 38.24 and 42.99 and 33.41 and 36.54 and 32.79
- SM 36:1 content of skeletal muscle (HFD + P053, individual mice): 417.25 and 223.91 and 402.67 and 173.58 and 151.95 and 224.57 and 278.63 and 314.63 and 349.53 and 221.70 and 178.54 and 207.41 and 149.58 and 139.86 and 137.50 and 198.09 and 163.61 and 154.30 and 147.61
- SM 36:2 content of skeletal muscle (HFD + P053, individual mice): 2.88 and 7.47 and 1.66 and 1.87 and 1.75 and 5.22 and 2.66 and 6.56 and 8.38 and 7.06 and 6.58 and 7.04 and 4.61 and 3.90 and 3.95 and 6.89 and 4.71 and 5.16 and 4.33
- SM 38:1 content of skeletal muscle (HFD + P053, individual mice): 11.48 and 13.05 and 11.02 and 10.80 and 17.24 and 10.17 and 15.13 and 9.50 and 12.28 and 0.77 (2×) and 0.82 and 1.11 and 0.80 and 0.71 (2×) and 0.68 and 0.83 and 0.73
- SM 40:1 content of skeletal muscle (HFD + P053, individual mice): 27.34 and 27.26 and 26.32 and 23.00 and 31.62 and 23.79 and 31.23 and 22.04 and 24.26 and 29.13 and 27.02 and 34.08 and 33.01 and 18.95 and 25.13 and 25.49 and 34.47 and 24.05 and 33.50
- SM 40:2 content of skeletal muscle (HFD + P053, individual mice): 1.78 and 2.91 (2×) and 1.98 and 2.11 and 2.83 and 1.89 and 2.53 and 1.77 and 2.29 and 2.59 and 3.38 and 2.49 and 1.96 and 2.67 and 2.64 and 2.84 and 2.34 and 2.94
- SM 42:1 content of skeletal muscle (HFD + P053, individual mice): 15.46 and 16.53 and 18.68 and 19.65 and 22.92 and 14.56 and 23.18 and 14.90 and 18.70 and 19.26 and 17.69 and 25.18 and 22.26 and 12.72 and 19.43 and 19.06 and 23.08 and 18.56 and 31.22
- SM 42:2 content of skeletal muscle (HFD + P053, individual mice): 53.70 and 57.56 and 54.97 and 42.97 and 63.03 and 48.46 and 60.01 and 50.89 and 52.69 and 51.87 and 48.15 and 70.42 and 61.77 and 37.14 and 54.20 and 54.85 and 64.93 and 49.70 and 71.83
- SM 42:3 content of skeletal muscle (HFD + P053, individual mice): 9.08 and 11.26 and 8.06 and 8.54 and 12.73 and 9.01 and 12.20 and 10.73 and 15.91 and 12.10 and 11.91 and 13.64 and 11.55 and 7.81 and 10.86 and 9.89 and 12.79 and 9.17 and 13.47
- reduction of most triacylglycerol (TAG) species in SkM (HFD + P053 compared to HFD + vehicle): more than 50%
- Cer(d18:1/18:0)+H, Difference [1]: 0.4848
- Cer(d18:2/18:0)+H, Difference [1]: 0.6042
- Cer(d18:1/18:0)+H, Mean2 [2]: 2.896
- Cer(d18:2/18:0)+H, Mean2 [2]: 0.4179
- Cer(d18:1/18:0)+H, Difference [3]: 0.7206
- Cer(d18:1/22:0)+H, Difference [3]: -0.3135
- Cer(d18:1/24:0)+H, Difference [3]: -0.4027
- Cer(d18:1/24:1)+H, Difference [3]: -0.3555
- Cer(d18:2/18:0)+H, Difference [3]: 0.8901
- SM(d41:1)+H, Difference [3]: -0.3059
- SM(d42:2)+H, Difference [3]: -0.2817
- Cer(d18:1/18:0)+H, Mean2 [4]: 2.811
- Cer(d18:1/22:0)+H, Mean2 [4]: 0.3563
- Cer(d18:1/24:0)+H, Mean2 [4]: 0.4756
- Cer(d18:1/24:1)+H, Mean2 [4]: 1.172
- Cer(d18:2/18:0)+H, Mean2 [4]: 0.1066
- SM(d41:1)+H, Mean2 [4]: 1.941
- SM(d42:2)+H, Mean2 [4]: 3.999
- DG levels in SkM (chow or HFD): does not affect; also recorded: unaffected
- SkM TAG levels (normal chow): did not affect
- C18 ceramide levels in SkM (pilot study, 7 days, 1 mg/kg/day): no effect
- reduction of C18 ceramide levels in SkM (pilot study, 7 days, 5 mg/kg/day): 31%
